Consider eleven molecules from ChEMBL document CHEMBL2073817 (J Pharmacol Exp Ther, 2002).

Series [1] has as its target T1, OAT4 (Solute carrier family 22 member 11) (Homo sapiens, UniProt Q9NSA0).
T1 sequence (Q9NSA0 whole entry): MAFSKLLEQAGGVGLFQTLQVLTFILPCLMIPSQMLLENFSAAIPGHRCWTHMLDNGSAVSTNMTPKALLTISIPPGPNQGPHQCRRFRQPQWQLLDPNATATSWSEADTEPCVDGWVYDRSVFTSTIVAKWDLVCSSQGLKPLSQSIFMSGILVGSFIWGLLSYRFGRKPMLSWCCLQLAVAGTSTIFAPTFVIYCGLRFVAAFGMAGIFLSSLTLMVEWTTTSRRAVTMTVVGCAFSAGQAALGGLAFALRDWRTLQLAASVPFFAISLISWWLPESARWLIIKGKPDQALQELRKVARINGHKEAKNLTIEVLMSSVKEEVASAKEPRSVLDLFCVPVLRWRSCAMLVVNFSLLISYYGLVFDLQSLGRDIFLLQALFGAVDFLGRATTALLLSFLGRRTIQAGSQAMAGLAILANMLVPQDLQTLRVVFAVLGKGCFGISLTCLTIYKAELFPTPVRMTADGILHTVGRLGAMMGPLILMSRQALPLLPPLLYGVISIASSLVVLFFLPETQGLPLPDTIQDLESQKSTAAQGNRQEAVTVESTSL
Briefly: TP_TRANSPORTER: inhibition of MTX uptake (MTX: 1 uM, Ibuprofen: 1000 uM) in OAT4-expressing S2 cells. Format: functional, cell-based. Details: scale not given: the % may be the effect or the level left. Particulars: probe MTX, read-out: Activity.

Series [2] has as its target T1, OAT4 (Solute carrier family 22 member 11). Kind of series: TP_TRANSPORTER: inhibition of MTX uptake (MTX: 1 uM, Indomethacin: 500 uM) in OAT4-expressing S2 cells. Format: functional, cell-based. Details: scale not given: the % may be the effect or the level left. As to conditions: probe MTX, read-out: Activity.
Series [3] deals with T2, OAT1 (Solute carrier family 22 member 6) (Homo sapiens, UniProt Q4U2R8).
T2 sequence (Q4U2R8 whole entry): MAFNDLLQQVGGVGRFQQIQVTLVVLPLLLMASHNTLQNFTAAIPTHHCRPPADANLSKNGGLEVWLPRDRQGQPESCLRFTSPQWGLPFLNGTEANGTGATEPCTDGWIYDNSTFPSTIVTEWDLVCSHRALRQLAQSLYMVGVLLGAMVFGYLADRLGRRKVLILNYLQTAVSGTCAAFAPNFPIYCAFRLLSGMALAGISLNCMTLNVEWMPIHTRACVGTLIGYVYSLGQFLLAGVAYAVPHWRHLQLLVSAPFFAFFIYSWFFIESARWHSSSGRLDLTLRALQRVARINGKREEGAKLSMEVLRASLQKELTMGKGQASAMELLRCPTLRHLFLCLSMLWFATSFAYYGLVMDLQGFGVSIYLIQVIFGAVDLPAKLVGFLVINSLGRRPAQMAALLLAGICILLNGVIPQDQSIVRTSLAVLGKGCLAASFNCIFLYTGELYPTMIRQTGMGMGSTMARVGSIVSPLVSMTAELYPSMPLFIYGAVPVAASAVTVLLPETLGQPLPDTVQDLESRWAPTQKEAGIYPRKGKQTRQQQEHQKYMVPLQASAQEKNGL
Kind of series: TP_TRANSPORTER: inhibition of MTX uptake (MTX: 1 uM, Indomethacin: 500 uM) in OAT1-expressing S2 cells. Also noted: scale not given: the % may be the effect or the level left. Format: functional, cell-based. Particulars: mouse, probe MTX, read-out: Activity.

For series [4], the target named is T3, Organic anion transporter 3 (Homo sapiens, UniProt Q8TCC7).
T3 sequence (Q8TCC7 whole entry): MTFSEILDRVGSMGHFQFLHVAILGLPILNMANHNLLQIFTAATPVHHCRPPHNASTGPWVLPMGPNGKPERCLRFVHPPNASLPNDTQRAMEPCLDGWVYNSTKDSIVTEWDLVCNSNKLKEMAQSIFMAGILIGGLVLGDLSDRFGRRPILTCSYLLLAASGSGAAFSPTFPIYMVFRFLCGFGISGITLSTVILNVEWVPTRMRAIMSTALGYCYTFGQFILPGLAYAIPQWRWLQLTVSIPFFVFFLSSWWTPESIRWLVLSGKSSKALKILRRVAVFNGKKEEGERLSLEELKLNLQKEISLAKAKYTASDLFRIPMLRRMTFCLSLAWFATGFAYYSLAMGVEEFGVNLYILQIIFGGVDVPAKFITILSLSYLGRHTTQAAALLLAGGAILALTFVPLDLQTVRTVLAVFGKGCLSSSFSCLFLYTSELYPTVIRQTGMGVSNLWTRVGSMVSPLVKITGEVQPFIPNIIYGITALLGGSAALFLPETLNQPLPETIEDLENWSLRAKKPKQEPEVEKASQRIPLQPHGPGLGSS
Kind of series: TP_TRANSPORTER: inhibition of MTX uptake in OAT3-expressing S2 cells. Format: functional, cell-based.

Series [5] concerns the target T1, OAT4 (Solute carrier family 22 member 11). Briefly: TP_TRANSPORTER: inhibition of MTX uptake (MTX: 1 uM, Ketoprofen: 1000 uM) in OAT4-expressing S2 cells. Also noted: scale not given: the % may be the effect or the level left. Format: functional, cell-based. Particulars: mouse, probe MTX, read-out: Activity.
Series [6] has as its target T2, OAT1 (Solute carrier family 22 member 6). Briefly: TP_TRANSPORTER: inhibition of MTX uptake (MTX: 1 uM, Ketoprofen: 1000 uM) in OAT1-expressing S2 cells. Particulars: probe MTX, read-out: Activity. The format is functional, cell-based. Details: scale not given: the % may be the effect or the level left.
In series [7] the target is T1, OAT4 (Solute carrier family 22 member 11). Kind of series: TP_TRANSPORTER: inhibition of MTX uptake (MTX: 1 uM, PCG: 1000 uM) in OAT4-expressing S2 cells. The format is functional, cell-based. Also noted: scale not given: the % may be the effect or the level left. As to conditions: mouse, probe MTX, read-out: Activity.
Series [8] has the same target. Briefly: TP_TRANSPORTER: inhibition of MTX uptake (MTX: 1 uM, Phenylbutazone: 1000 uM) in OAT4-expressing S2 cells. The format is functional, cell-based. Also noted: scale not given: the % may be the effect or the level left. Particulars: probe MTX, read-out: Activity.
For series [9], the target named is T2, OAT1 (Solute carrier family 22 member 6). Briefly: TP_TRANSPORTER: inhibition of MTX uptake (MTX: 1 uM, Phenylbutazone: 1000 uM) in OAT1-expressing S2 cells. The format is functional, cell-based. Particulars: probe MTX, read-out: Activity. Also noted: scale not given: the % may be the effect or the level left.
The target in series [10] is T1, OAT4 (Solute carrier family 22 member 11). Briefly: TP_TRANSPORTER: inhibition of MTX uptake (MTX: 1 uM, Piroxicam: 1000 uM) in OAT4-expressing S2 cells. As to conditions: mouse, probe MTX, read-out: Activity. Details: scale not given: the % may be the effect or the level left. The format is functional, cell-based.
Series [11] has the same target. Kind of series: TP_TRANSPORTER: inhibition of MTX uptake (MTX: 1 uM, Probenecid: 1000 uM) in OAT4-expressing S2 cells. The format is functional, cell-based. Also noted: scale not given: the % may be the effect or the level left. As to conditions: probe MTX, read-out: Activity.
Substrate in series [12]: CN(Cc1cnc2nc(N)nc(N)c2n1)c1ccc(C(=O)N[C@@H](CCC(=O)O)C(=O)O)cc1
Briefly: TP_TRANSPORTER: uptake in OAT1-expressing S2 cells. The format is functional, cell-based.

Substrate in series [13]: CN(Cc1cnc2nc(N)nc(N)c2n1)c1ccc(C(=O)N[C@@H](CCC(=O)O)C(=O)O)cc1
Kind of series: cells, lysate or membranes named.

In the case of `CC(C)Cc1ccc(C(C)C(=O)O)cc1` (centres undefined) [IBUPROFEN], the activity at 1000 µM in [1] was found to be 67.8%.

What is called Ki is a dissociation constant, usually derived from enzyme kinetics or from competition with a known ligand. Take `COc1ccc2c(c1)c(CC(=O)O)c(C)n2C(=O)c1ccc(Cl)cc1` [INDOMETHACIN]: the results for the activity at 500 µM in series [2] and in series [3] were 60.9% and 60.6%, respectively. In [4], the Ki turned out to be 5.95 µM.

For `CC(C(=O)O)c1cccc(C(=O)c2ccccc2)c1` (centres undefined) [KETOPROFEN], the activity at 1000 µM in series [5] was 81%; in [6] it was 53.4%. The Ki in [4] was found to be 1160 µM.

For the molecule `CC1(C)S[C@@H]2[C@H](NC(=O)Cc3ccccc3)C(=O)N2[C@H]1C(=O)O` [PENICILLIN G], the activity at 1000 µM in series [7] is 79.7%. Moreover, affinity in [4] was put at a Ki of 97.6 µM.

As to `CCCCC1C(=O)N(c2ccccc2)N(c2ccccc2)C1=O` [PHENYLBUTAZONE], the activity at 1000 µM in series [8] amounted to 55.7%; in [9], 30%. The molecule further yielded a Ki in series [4] of 34.7 µM.

Regarding `CN1C(C(=O)Nc2ccccn2)=C(O)c2ccccc2S1(=O)=O` [PIROXICAM], the activity at 1000 µM in [10] came out at 62%. The same molecule came in with a Ki in [4] of 1200 µM.

In the case of `CCCN(CCC)S(=O)(=O)c1ccc(C(=O)O)cc1` [PROBENECID], the activity at 1000 µM in [11] stood at 81.6%.

On to `O=C(O)c1ccccc1O` [SALICYLIC ACID], for which the inhibitory constant (Ki) in [4] came to 1020 µM.

B1: Solute carrier family 22 member 11 (Homo sapiens) (protein)
chain: MAFSKLLEQAGGVGLFQTLQVLTFILPCLMIPSQMLLENFSAAIPGHRCWTHMLDNGSAVSTNMTPKALLTISIPPGPNQGPHQCRRFRQPQWQLLDPNATATSWSEADTEPCVDGWVYDRSVFTSTIVAKWDLVCSSQGLKPLSQSIFMSGILVGSFIWGLLSYRFGRKPMLSWCCLQLAVAGTSTIFAPTFVIYCGLRFVAAFGMAGIFLSSLTLMVEWTTTSRRAVTMTVVGCAFSAGQAALGGLAFALRDWRTLQLAASVPFFAISLISWWLPESARWLIIKGKPDQALQELRKVARINGHKEAKNLTIEVLMSSVKEEVASAKEPRSVLDLFCVPVLRWRSCAMLVVNFSLLISYYGLVFDLQSLGRDIFLLQALFGAVDFLGRATTALLLSFLGRRTIQAGSQAMAGLAILANMLVPQDLQTLRVVFAVLGKGCFGISLTCLTIYKAELFPTPVRMTADGILHTVGRLGAMMGPLILMSRQALPLLPPLLYGVISIASSLVVLFFLPETQGLPLPDTIQDLESQKSTAAQGNRQEAVTVESTSL
Usually Km stands for the concentration of substrate that gives half-maximal velocity. Take B1: in series [12], the Michaelis constant (Km) is 17.8 µM.

B2: Organic anion transporter 3 (Homo sapiens) (protein)
chain: MTFSEILDRVGSMGHFQFLHVAILGLPILNMANHNLLQIFTAATPVHHCRPPHNASTGPWVLPMGPNGKPERCLRFVHPPNASLPNDTQRAMEPCLDGWVYNSTKDSIVTEWDLVCNSNKLKEMAQSIFMAGILIGGLVLGDLSDRFGRRPILTCSYLLLAASGSGAAFSPTFPIYMVFRFLCGFGISGITLSTVILNVEWVPTRMRAIMSTALGYCYTFGQFILPGLAYAIPQWRWLQLTVSIPFFVFFLSSWWTPESIRWLVLSGKSSKALKILRRVAVFNGKKEEGERLSLEELKLNLQKEISLAKAKYTASDLFRIPMLRRMTFCLSLAWFATGFAYYSLAMGVEEFGVNLYILQIIFGGVDVPAKFITILSLSYLGRHTTQAAALLLAGGAILALTFVPLDLQTVRTVLAVFGKGCLSSSFSCLFLYTSELYPTVIRQTGMGVSNLWTRVGSMVSPLVKITGEVQPFIPNIIYGITALLGGSAALFLPETLNQPLPETIEDLENWSLRAKKPKQEPEVEKASQRIPLQPHGPGLGSS
For B2, in series [12], the Km came out at 21.1 µM.

B3: Solute carrier family 22 member 6 (Homo sapiens) (protein)
chain: MAFNDLLQQVGGVGRFQQIQVTLVVLPLLLMASHNTLQNFTAAIPTHHCRPPADANLSKNGGLEVWLPRDRQGQPESCLRFTSPQWGLPFLNGTEANGTGATEPCTDGWIYDNSTFPSTIVTEWDLVCSHRALRQLAQSLYMVGVLLGAMVFGYLADRLGRRKVLILNYLQTAVSGTCAAFAPNFPIYCAFRLLSGMALAGISLNCMTLNVEWMPIHTRACVGTLIGYVYSLGQFLLAGVAYAVPHWRHLQLLVSAPFFAFFIYSWFFIESARWHSSSGRLDLTLRALQRVARINGKREEGAKLSMEVLRASLQKELTMGKGQASAMELLRCPTLRHLFLCLSMLWFATSFAYYGLVMDLQGFGVSIYLIQVIFGAVDLPAKLVGFLVINSLGRRPAQMAALLLAGICILLNGVIPQDQSIVRTSLAVLGKGCLAASFNCIFLYTGELYPTMIRQTGMGMGSTMARVGSIVSPLVSMTAELYPSMPLFIYGAVPVAASAVTVLLPETLGQPLPDTVQDLESRWAPTQKEAGIYPRKGKQTRQQQEHQKYMVPLQASAQEKNGL
In the case of B3, in series [13], the Km came to 554 µM.
